Activity calls are given as the source filed them. No cut-off for these calls is given here.
How the values were obtained:
[1] = Quenching activity of compound in pH 7.4 PBS assessed as 4-HNE consumption at 2 mmol/L after 1 hr by HPLC analysis; assay type: functional
[2] = Quenching activity of compound in pH 7.4 PBS assessed as 4-HNE consumption at 2 mmol/L after 30 mins by HPLC analysis relative to control; assay type: functional
Meriones unguiculatus [3] = assay: (§1) Neuroprotective activity against BCCO-induced transient cerebral ischemia in mongolian gerbil hippocampal CA1 region assessed as increase in viable neurons at 100 mg/kg, ip administered immediately after BCCO treatment and measured after 7 days by hematoxylin and eosin staining-based light microscopic analysis; assay type: functional, organism-based
PC-12 [4] = assay: Cytotoxicity against rat PC12 cells at 1 to 50 mM after 30 mins by MTT assay; assay type: cell-based; details: pc-12, 0.5 h, 50000 µM
PC-12 [5] = assay: Neuroprotective activity against 4-HNE-induced toxicity in rat PC12 cells preincubated for 30 mins followed by compound wash and 4-HNE addition measured after 24 hrs by MTT assay; assay type: functional, cell-based
PC-12 [6] = assay: Neuroprotective activity against 4-HNE-induced toxicity in rat PC12 cells at 30 mM preincubated for 30 mins followed by compound wash and 4-HNE addition measured after 24 hrs by MTT assay relative to control; assay type: functional
Meriones unguiculatus [7] = assay: as §1, with “20” for “100”, “20 mins prior to” for “immediately after”, “analysis relative to control” for “analysis”; assay type: functional
Meriones unguiculatus [8] = assay: as §1, with “analysis relative to control” for “analysis”; assay type: functional
Meriones unguiculatus [9] = assay: Neuroprotective activity against BCCO-induced transient cerebral ischemia in mongolian gerbil hippocampal CA1 region assessed as increase in Hsp70 activity at 20 mg/kg, ip administered 20 mins prior to BCCO treatment measured after 24 hrs by immunostaining analysis; assay type: functional, organism-based

SMILES	Activity [1]	Activity [2]	other results
NNC(=O)[C@@H](N)Cc1c[nH]cn1	Active	70%	Activity (Meriones unguiculatus [3]): inactive
CC(=O)NCCC(=O)N[C@@H](Cc1c[nH]cn1)C(=O)NN	Active		
NCCC(=O)N[C@@H](Cc1c[nH]cn1)C(=O)O	Active	20%	
NCCC(=O)N[C@@H](Cc1c[nH]cn1)C(=O)NN	Active	90%	Activity (PC-12 [4]): Non-Toxic; Activity (PC-12 [5]): Dose-dependent effect; Activity (PC-12 [6]): 100%; Activity (Meriones unguiculatus [7]): >60%; Activity (Meriones unguiculatus [8]): 40%; Activity (Meriones unguiculatus [9]): Active
CC(=O)NNC(=O)[C@H](Cc1c[nH]cn1)NC(=O)CCN	Active		
CC(=O)NCCC(=O)N[C@@H](Cc1c[nH]cn1)C(=O)NNC(C)=O	Active		
